Data reported in US20260265207A1, “DPP1 INHIBITORS WITH POLYCYCLIC LINKERS AND USES THEREOF” (Insmed Incorporated, priority 2023, published 2026).
pIC50: −log10 of the molar value.

What was measured:
DPP1 [1] = target: T1, DPP1 (Homo sapiens, UniProt P53634); test: Human DPP1 Enzyme IC50 Assay; format: biochemical; set-up: is first proteolytically processed into its mature form using recombinant human cathepsin L; purchased R&D Systems; conditions: activated recombinant human DPP1, H-Gly-Arg-AMC substrate 400 μM, pH 6.0
Description: Human DPP1 Enzyme IC50 Assay
Recombinant human DPP1 enzyme (R&D Systems; Minneapolis, MN) is first proteolytically processed into its mature form using recombinant human cathepsin L (R&D Systems) in a buffer consisting of 20 mM citric acid pH 4.5, 150 mM NaCl, 1 mM EDTA and 10 mM DTT. Test articles are applied to activated human DPP1 enzyme in Assay Buffer (25 mM MES pH 6.0, 50 mM NaCl, 5 mM DTT) in a total reaction volume of 125 μL. 25 μL of compound in Assay Buffer plus 5% DMSO is first added to 50 μL of activated human DPP1 enzyme at a concentration of 1 ng/μL and allowed to pre-incubate for 10 minutes at 37° C. after which 50 μL of 1000 μM H-Gly-Arg-AMC substrate (Bachem; St. Torrance, CA) is added, giving final substrate concentration of 400 μM and a final DMSO concentration of 1%. Substrate cleavage is measured for 90 minutes at 37° C., with fluorescence at Excitation/Emission 350/450 nm measured every 5 minutes. DPP1 concentration is interpolated based on its activity relative to a standard curve of activated human recombinant DPP1 enzyme. IC50 values for each compound are calculated via the XLFit (IDBS Version 5.3.1.3) Add-On to Microsoft Excel using the four parameter fit equation y={A+[(B−A)]/[1+((C/x)^D)]}, which appears as equation number 205 (4 Parameter Logistic Model or Sigmoidal Dose-Response Model) in XLFit. Default constraints are used for each Parameter. IC50 is defined as the compound concentration at which […] of enzyme activity is inhibited when compared to the no-compound control. The IC50 table is included in the table below.
Target sequence in this assay (P53634 25-134 limits assumed): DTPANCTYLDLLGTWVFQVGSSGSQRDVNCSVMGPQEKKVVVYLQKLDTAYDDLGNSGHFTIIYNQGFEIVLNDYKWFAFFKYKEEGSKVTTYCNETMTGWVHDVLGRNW
Target sequence in this assay (P53634 231-394 limits assumed): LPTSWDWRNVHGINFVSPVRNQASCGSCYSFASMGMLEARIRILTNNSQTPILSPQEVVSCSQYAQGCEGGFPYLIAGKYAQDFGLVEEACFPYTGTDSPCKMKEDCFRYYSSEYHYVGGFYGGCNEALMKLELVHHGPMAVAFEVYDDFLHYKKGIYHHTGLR
Target sequence in this assay (P53634 395-463 limits assumed): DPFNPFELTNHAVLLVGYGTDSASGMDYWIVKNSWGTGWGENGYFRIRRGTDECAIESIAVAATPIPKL

active mouse DPP1 enzyme = target: T2, active mouse DPP1 enzyme (Mus musculus, UniProt P97821); test: Mouse DPP1 Enzyme IC50 Assay; format: biochemical; conditions: active mouse DPP1, H-Gly-Arg-AMC substrate 400 μM, pH 5.5
T2 construct: Test articles are applied to active mouse DPP1 enzyme; purchased R&D Systems
Description: Mouse DPP1 Enzyme IC50 Assay
Test articles are applied to active mouse DPP1 enzyme (R&D Systems; Minneapolis, MN) in Assay Buffer (50 mM MES pH 5.5, 50 mM NaCl, 5 mM DTT) in a total reaction volume of 125 μL. 25 μL of compound in Assay Buffer plus 5% DMSO is first added to 50 μL of active mouse DPP1 enzyme at a concentration of 62.5 pg/μL and allowed to pre-incubate for 10 minutes at 37° C. after which 50 μL of 1000 μM H-Gly-Arg-AMC substrate (Bachem; St. Torrance, CA) is added, giving final substrate concentration of 400 μM and a final DMSO concentration of 1%. Substrate cleavage is measured for 90 minutes at 37° C., with fluorescence at Excitation/Emission 350/450 nm measured every 5 minutes. DPP1 concentration is interpolated based on its activity relative to a standard curve of recombinant active mouse DPP1 enzyme. IC50 values for each compound are calculated via the XLFit (IDBS Version 5.3.1.3) Add-On to Microsoft Excel using the four parameter fit equation y=(A+((B-A)/(1+((C/x)^D)))), which appears as equation number 205 (4 Parameter Logistic Model or Sigmoidal Dose-Response Model) in XLFit. Default constraints are used for each Parameter. IC50 is defined as the compound concentration at which 50% of enzyme activity is inhibited when compared to the no-compound control.

DPP1 [2] = target: T1, DPP1; test: Cell Assay (DPP1 IC50 values, Table 2); format: cell-based; conditions: method not described
Target sequence in this assay (P53634 25-463): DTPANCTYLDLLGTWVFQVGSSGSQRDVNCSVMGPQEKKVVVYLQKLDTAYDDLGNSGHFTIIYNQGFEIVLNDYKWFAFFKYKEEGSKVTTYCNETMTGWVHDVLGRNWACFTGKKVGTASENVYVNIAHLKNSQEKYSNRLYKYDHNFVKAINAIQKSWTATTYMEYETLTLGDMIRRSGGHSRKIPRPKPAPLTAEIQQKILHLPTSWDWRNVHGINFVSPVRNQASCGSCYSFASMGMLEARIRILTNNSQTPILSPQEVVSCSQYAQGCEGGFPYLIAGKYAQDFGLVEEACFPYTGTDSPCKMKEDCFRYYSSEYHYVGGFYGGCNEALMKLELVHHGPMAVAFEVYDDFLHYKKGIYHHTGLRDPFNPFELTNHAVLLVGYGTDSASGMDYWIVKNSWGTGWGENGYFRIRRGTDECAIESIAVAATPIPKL

T2 sequence (P97821 25-134 limits assumed): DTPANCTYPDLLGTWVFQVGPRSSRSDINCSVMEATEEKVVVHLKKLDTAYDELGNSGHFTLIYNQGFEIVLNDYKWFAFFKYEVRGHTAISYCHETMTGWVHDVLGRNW
T2 sequence (P97821 231-393 limits assumed): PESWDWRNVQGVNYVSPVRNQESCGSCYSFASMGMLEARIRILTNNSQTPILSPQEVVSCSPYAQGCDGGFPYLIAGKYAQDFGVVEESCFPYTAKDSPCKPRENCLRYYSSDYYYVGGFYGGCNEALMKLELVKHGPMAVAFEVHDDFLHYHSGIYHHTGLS
T2 sequence (P97821 394-462 limits assumed): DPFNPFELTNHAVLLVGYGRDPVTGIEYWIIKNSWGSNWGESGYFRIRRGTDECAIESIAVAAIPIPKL

With `Cn1c(=O)oc2ccc(C34CC(C[C@@H](C#N)NC(=O)[C@@H]5CNCCCO5)(C3)C4)cc21` [Compound 101d] as the molecule, how does the IC50 (DPP1 [1]) read?
The IC50 was no less than 15 nM.

With `Cn1c(=O)oc2ccc(-c3cc4ccc(C[C@@H](C#N)NC(=O)C5CNCCCO5)cc4s3)cc21` (stereo partly shown) [Compound 112b] as the molecule, how does the IC50 (DPP1 [1]) read?
Its IC50 is no less than 15 nM.

Which IC50 (active mouse DPP1 enzyme) does the source give for `Cn1c(=O)oc2ccc(-c3ccc4cc(C[C@@H](C#N)NC(=O)[C@@H]5CNCCCO5)sc4c3)cc21` [Compound 113b] here?
The IC50 was no less than 20 nM.

What about the IC50 (DPP1 [1]) of the same molecule?
The IC50 was no less than 15 nM.

And the pIC50 (DPP1 [2])?
Its pIC50 is no more than 8.82.

`Cn1c(=O)oc2ccc(-c3ccc4sc(C[C@@H](C#N)NC(=O)C5CNCCCO5)cc4c3)cc21` (stereo partly shown) [Compound 114b] was tested. Which IC50 (active mouse DPP1 enzyme) did it give?
Its IC50 is no less than 20 nM.

What about the IC50 (DPP1 [1]) of the same molecule?
The IC50 was no less than 15 nM.

And the pIC50 (DPP1 [2])?
Its pIC50 is no more than 8.82.

Which IC50 (active mouse DPP1 enzyme) does the source give for `Cn1c(=O)oc2ccc(-c3ccc4sc(C[C@@H](C#N)NC(=O)[C@@H]5CNCCCO5)c(F)c4c3)cc21` [Compound 115b] here?
The IC50 was no less than 20 nM.

What about the IC50 (DPP1 [1]) of the same molecule?
The IC50 was no less than 15 nM.

What about the pIC50 (DPP1 [2]) of the same molecule?
Its pIC50 is no more than 8.82.

How did the IC50 (active mouse DPP1 enzyme) turn out when `Cn1c(=O)oc2ccc(-c3cc4sc(CC(C#N)NC(=O)[C@@H]5CNCCCO5)cc4s3)cc21` (stereo partly drawn) [Compound 118b, (2S)—N-(1-cyano-2-(5-(3-methyl-2-oxo-2,3-dihydrobenzo[d]oxazol-5-yl)thieno[3,2-b]thiophen-2-yl)ethyl)-1,4-oxazepane-2-carboxamide] was run?
Its IC50 is no less than 20 nM.

And the IC50 (DPP1 [1])?
The IC50 was no less than 15 nM.

And the pIC50 (DPP1 [2])?
The pIC50 was no more than 8.82.

Which results are given for `Cn1c(=O)oc2ccc(-c3ccc4cc(CC(C#N)NC(=O)[C@@H]5CNCCCO5)[nH]c4c3)cc21` (stereo partly drawn) [Compound 128b, (2S)—N-(1-cyano-2-(6-(3-methyl-2-oxo-2,3-dihydrobenzo[d]oxazol-5-yl)-1H-indol-2-yl)ethyl)-1,4-oxazepane-2-carboxamide]?
IC50 (DPP1 [1]): ≥ 15 nM; pIC50 (DPP1 [2]): ≤ 8.82

`Cn1c(=O)oc2ccc(-c3ccc4c(F)c(C[C@@H](C#N)NC(=O)[C@@H]5CNCCCO5)sc4c3)cc21` [Compound 130b] was tested. Which IC50 (DPP1 [1]) did it give?
The IC50 was no less than 15 nM.

What about the pIC50 (DPP1 [2]) of the same molecule?
Its pIC50 is no more than 8.82.

For `Cn1c(=O)oc2ccc(-c3cc4cc(C[C@@H](C#N)NC(=O)C5CNCCCO5)ccc4s3)cc21` (stereo partly shown) [Compound 131b], which IC50 (DPP1 [1]) is on record?
The IC50 was no less than 15 nM.

And the pIC50 (DPP1 [2])?
The pIC50 was no more than 8.82.

With `Cn1c(=O)oc2ccc(-c3ccc4cc(CC(C#N)NC(=O)[C@@H]5CNCCCO5)ccc4c3)cc21` (stereo partly drawn) [Compound 133b, (2S)—N-{1-cyano-2-[6-(3-methyl-2-oxo-1,3-benzoxazol-5-yl)naphthalen-2-yl]ethyl}-1,4-oxazepane-2-carboxamide] as the molecule, how does the IC50 (DPP1 [1]) read?
Its IC50 is no less than 15 nM.

And the pIC50 (DPP1 [2])?
The pIC50 was no more than 8.82.

With `Cn1c(=O)oc2ccc(-c3cc4ccc(C[C@@H](C#N)NC(=O)[C@@H]5CNCCCO5)c(F)c4s3)cc21` [Compound 134a] as the molecule, how does the IC50 (DPP1 [1]) read?
The IC50 was no less than 15 nM.

And the pIC50 (DPP1 [2])?
Its pIC50 is no more than 8.82.

With `CCN1C(=O)Cc2ccc(-c3cc4sc(C[C@@H](C#N)NC(=O)[C@@H]5CNCCCCO5)cc4s3)cc21` [Compound 138b, (2S)—N-[(1S)-1-cyano-2-[5-(1-ethyl-2-oxo-3H-indol-6-yl)thieno[3,2-b]thiophen-2-yl]ethyl]-1,4-oxazocane-2-carboxamide] as the molecule, how does the IC50 (DPP1 [1]) read?
Its IC50 is no less than 15 nM.

And the pIC50 (DPP1 [2])?
The pIC50 was no more than 8.82.

For `CCN1C(=O)Cc2ccc(-c3cc4sc(C[C@H](C#N)NC(=O)[C@@H]5CNCCCCO5)cc4s3)cc21` [Compound 138c, (2S)—N-[(1R)-1-cyano-2-[5-(1-ethyl-2-oxo-3H-indol-6-yl)thieno[3,2-b]thiophen-2-yl]ethyl]-1,4-oxazocane-2-carboxamide], which IC50 (DPP1 [1]) is on record?
Its IC50 is no less than 15 nM.

And the pIC50 (DPP1 [2])?
Its pIC50 is no more than 8.82.

Which results are given for `Cn1c(=O)oc2ccc(-c3cc4sc(C[C@@H](C#N)NC(=O)[C@@H]5CNCCCCO5)cc4s3)cc21` [Compound 139b, (2S)—N-[(1S)-1-cyano-2-[5-(3-methyl-2-oxo-1,3-benzoxazol-5-yl)thieno[3,2-b]thiophen-2-yl]ethyl]-1,4-oxazocane-2-carboxamide]?
IC50 (DPP1 [1]): ≥ 15 nM; pIC50 (DPP1 [2]): ≤ 8.82

What does the source list for `Cn1c(=O)oc2ccc(-c3cc4sc(C[C@H](C#N)NC(=O)[C@@H]5CNCCCCO5)cc4s3)cc21` [Compound 139c, (2S)—N-[(1R)-1-cyano-2-[5-(3-methyl-2-oxo-1,3-benzoxazol-5-yl)thieno[3,2-b]thiophen-2-yl]ethyl]-1,4-oxazocane-2-carboxamide]?
IC50 (DPP1 [1]): ≥ 15 nM; pIC50 (DPP1 [2]): ≤ 8.82

Which results are given for `CO[C@@H]1CCNC[C@@H](C(=O)N[C@H](C#N)Cc2cc3sc(-c4ccc5oc(=O)n(C)c5c4)cc3s2)OC1` [Compound 142b]?
IC50 (DPP1 [1]): 5 to 15 nM; pIC50 (DPP1 [2]): ≤ 8.82
